Columns and labels:
Format in all cases: in vivo
[1] = test system: galium (catchweed bedstraw, Galium aparine); test: Test B postemergence plant response
Description: (§1) At the same time, plants selected from these crop and weed species and also blackgrass (Alopecurus myosuroides), and galium (catchweed bedstraw, Galium aparine) were planted in pots containing the same blend of loam soil and sand and treated with postemergence applications of test chemicals formulated in the same manner. Plants ranged in height from 2 to 10 cm and were in the one- to two-leaf stage for the postemergence treatment. Treated plants and untreated controls were maintained in a greenhouse for approximately 10 days, after which time all treated plants were compared to untreated controls and visually evaluated for injury. Plant response ratings, summarized in Table B, are based on a 0 to 100 scale where 0 is no effect and 100 is complete control. A dash (-) response means no test result.

[2] = test system: blackgrass (Alopecurus myosuroides); test: Test B postemergence plant response
Description: as §1

[3] = test system: ragweed (common ragweed, Ambrosia elatior); test: Test B pre-/postemergence plant response
Description: as §1, with “Seeds of plant species selected from bamyardgrass (Echinochloa crus-galli), kochia (Kochia scoparia), ragweed (common ragweed, Ambrosia elatior), Italian ryegrass (Lolium multiflorum), large (Lg) crabgrass (Digitaria sanguinalis), giant foxtail (Setaria faberii), momingglory (Ipomoea spp.), pigweed (Amaranthus retroflexus), velvetleaf (Abutilon theophrasti), wheat (Triticum aestivum), and corn (Zea mays) were planted into a blend of loam soil and sand and treated preemergence with a directed soil spray using test chemicals formulated in a non-phytotoxic solvent mixture which included a surfactant. At” for “At”

kochia (Kochia scoparia) = test: Test B pre-/postemergence plant response
Description: as §1, with “Seeds of plant species selected from bamyardgrass (Echinochloa crus-galli), kochia (Kochia scoparia), ragweed (common ragweed, Ambrosia elatior), Italian ryegrass (Lolium multiflorum), large (Lg) crabgrass (Digitaria sanguinalis), giant foxtail (Setaria faberii), momingglory (Ipomoea spp.), pigweed (Amaranthus retroflexus), velvetleaf (Abutilon theophrasti), wheat (Triticum aestivum), and corn (Zea mays) were planted into a blend of loam soil and sand and treated preemergence with a directed soil spray using test chemicals formulated in a non-phytotoxic solvent mixture which included a surfactant. At” for “At”

corn (Zea mays) = test: Test B pre-/postemergence plant response
Description: as §1, with “Seeds of plant species selected from bamyardgrass (Echinochloa crus-galli), kochia (Kochia scoparia), ragweed (common ragweed, Ambrosia elatior), Italian ryegrass (Lolium multiflorum), large (Lg) crabgrass (Digitaria sanguinalis), giant foxtail (Setaria faberii), momingglory (Ipomoea spp.), pigweed (Amaranthus retroflexus), velvetleaf (Abutilon theophrasti), wheat (Triticum aestivum), and corn (Zea mays) were planted into a blend of loam soil and sand and treated preemergence with a directed soil spray using test chemicals formulated in a non-phytotoxic solvent mixture which included a surfactant. At” for “At”

[4] = test system: barnyardgrass (Echinochloa crus-galli); test: Test B pre-/postemergence plant response
Description: as §1, with “Seeds of plant species selected from bamyardgrass (Echinochloa crus-galli), kochia (Kochia scoparia), ragweed (common ragweed, Ambrosia elatior), Italian ryegrass (Lolium multiflorum), large (Lg) crabgrass (Digitaria sanguinalis), giant foxtail (Setaria faberii), momingglory (Ipomoea spp.), pigweed (Amaranthus retroflexus), velvetleaf (Abutilon theophrasti), wheat (Triticum aestivum), and corn (Zea mays) were planted into a blend of loam soil and sand and treated preemergence with a directed soil spray using test chemicals formulated in a non-phytotoxic solvent mixture which included a surfactant. At” for “At”

[5] = test system: wheat (Triticum aestivum); test: Test B pre-/postemergence plant response
Description: as §1, with “Seeds of plant species selected from bamyardgrass (Echinochloa crus-galli), kochia (Kochia scoparia), ragweed (common ragweed, Ambrosia elatior), Italian ryegrass (Lolium multiflorum), large (Lg) crabgrass (Digitaria sanguinalis), giant foxtail (Setaria faberii), momingglory (Ipomoea spp.), pigweed (Amaranthus retroflexus), velvetleaf (Abutilon theophrasti), wheat (Triticum aestivum), and corn (Zea mays) were planted into a blend of loam soil and sand and treated preemergence with a directed soil spray using test chemicals formulated in a non-phytotoxic solvent mixture which included a surfactant. At” for “At”

[6] = test system: giant foxtail (Setaria faberii); test: Test B pre-/postemergence plant response
Description: as §1, with “Seeds of plant species selected from bamyardgrass (Echinochloa crus-galli), kochia (Kochia scoparia), ragweed (common ragweed, Ambrosia elatior), Italian ryegrass (Lolium multiflorum), large (Lg) crabgrass (Digitaria sanguinalis), giant foxtail (Setaria faberii), momingglory (Ipomoea spp.), pigweed (Amaranthus retroflexus), velvetleaf (Abutilon theophrasti), wheat (Triticum aestivum), and corn (Zea mays) were planted into a blend of loam soil and sand and treated preemergence with a directed soil spray using test chemicals formulated in a non-phytotoxic solvent mixture which included a surfactant. At” for “At”

[7] = test system: Italian ryegrass (Lolium multiflorum); test: Test B pre-/postemergence plant response
Description: as §1, with “Seeds of plant species selected from bamyardgrass (Echinochloa crus-galli), kochia (Kochia scoparia), ragweed (common ragweed, Ambrosia elatior), Italian ryegrass (Lolium multiflorum), large (Lg) crabgrass (Digitaria sanguinalis), giant foxtail (Setaria faberii), momingglory (Ipomoea spp.), pigweed (Amaranthus retroflexus), velvetleaf (Abutilon theophrasti), wheat (Triticum aestivum), and corn (Zea mays) were planted into a blend of loam soil and sand and treated preemergence with a directed soil spray using test chemicals formulated in a non-phytotoxic solvent mixture which included a surfactant. At” for “At”

[8] = test system: pigweed (Amaranthus retroflexus); test: Test B pre-/postemergence plant response
Description: as §1, with “Seeds of plant species selected from bamyardgrass (Echinochloa crus-galli), kochia (Kochia scoparia), ragweed (common ragweed, Ambrosia elatior), Italian ryegrass (Lolium multiflorum), large (Lg) crabgrass (Digitaria sanguinalis), giant foxtail (Setaria faberii), momingglory (Ipomoea spp.), pigweed (Amaranthus retroflexus), velvetleaf (Abutilon theophrasti), wheat (Triticum aestivum), and corn (Zea mays) were planted into a blend of loam soil and sand and treated preemergence with a directed soil spray using test chemicals formulated in a non-phytotoxic solvent mixture which included a surfactant. At” for “At”

[9] = 31 g ai/ha, Postemergence, 0 to 100 scale, 0 no effect, 100 complete control
[10] = 125 g ai/ha, postemergence, 0 to 100 scale, 0 no effect, 100 complete control
[11] = Preemergence, 31 g ai/ha, 0 to 100 scale (0 no effect, 100 complete control)
[12] = Preemergence, 125 g ai/ha, 0 to 100 scale where 0 is no effect and 100 is complete control
[13] = Postemergence, 1000 g ai/ha, 0 to 100 scale (0 no effect, 100 complete control)
[14] = Preemergence, 1000 g ai/ha, 0 to 100 scale (0 no effect, 100 complete control)

FC(F)=Cc1cc(-c2c(F)cccc2Oc2ncc(Cl)cn2)no1 [Compound 91]
Plant response rating, Galium [1, 9]: 0 | Plant response rating, Galium [1, 10]: 0 | Plant response rating, Blackgrass [2, 9]: 0 | Plant response rating, Blackgrass [2, 10]: 0 | Plant response rating, Ragweed [3, 9]: 0 | Plant response rating, Ragweed [3, 10]: 0 | Ragweed plant response rating [3, 11]: 0 | Plant response rating, Ragweed [3, 12]: 0 | Plant response rating, Kochia (kochia (Kochia scoparia); [9]): 0 | Plant response rating, Kochia (kochia (Kochia scoparia); [10]): 0 | Kochia plant response rating (kochia (Kochia scoparia); [11]): 0 | Plant response rating, Kochia (kochia (Kochia scoparia); [12]): 0 | Plant response rating, Corn (corn (Zea mays); [9]): 0 | Plant response rating, Corn (corn (Zea mays); [10]): 0 | Plant response rating, Barnyardgrass [4, 9]: 0 | Plant response rating, Barnyardgrass [4, 10]: 0 | Barnyardgrass plant response rating [4, 11]: 0 | Plant response rating, Barnyardgrass [4, 12]: 0 | Plant response rating, Wheat [5, 9]: 0 | Plant response rating, Wheat [5, 10]: 0 | Plant response rating, Foxtail, Giant [6, 9]: 0 | Plant response rating, Foxtail, Giant [6, 10]: 0 | Foxtail, Giant plant response rating [6, 11]: 0 | Plant response rating, Foxtail, Giant [6, 12]: 0 | Plant response rating, Ryegrass, Italian [7, 9]: 0 | Plant response rating, Ryegrass, Italian [7, 10]: 0 | Ryegrass, Italian plant response rating [7, 11]: 0 | Plant response rating, Ryegrass, Italian [7, 12]: 0 | Plant response rating, Pigweed [8, 9]: 0 | Plant response rating, Pigweed [8, 10]: 0 | Pigweed plant response rating [8, 11]: 0 | Plant response rating, Pigweed [8, 12]: 0

CCOC(=O)c1cc(-c2ccccc2Oc2ncc(Cl)cn2)no1 [Compound 148]
Plant response rating, Galium [1, 13]: 0 | Plant response rating, Blackgrass [2, 13]: 10 | Plant response rating, Ragweed [3, 13]: 0 | Plant response rating, Kochia (kochia (Kochia scoparia); [13]): 0 | Plant response rating, Kochia (kochia (Kochia scoparia); [14]): 0 | Plant response rating, Corn (corn (Zea mays); [13]): 0 | Plant response rating, Barnyardgrass [4, 13]: 10 | Plant response rating, Barnyardgrass [4, 14]: 0 | Plant response rating, Wheat [5, 13]: 0 | Plant response rating, Foxtail, Giant [6, 13]: 10 | Plant response rating, Foxtail, Giant [6, 14]: 0 | Plant response rating, Ryegrass, Italian [7, 13]: 0 | Plant response rating, Ryegrass, Italian [7, 14]: 0 | Plant response rating, Pigweed [8, 13]: 0 | Plant response rating, Pigweed [8, 14]: 0

Clc1cnc(Oc2ccccc2-c2ncns2)nc1 [Compound 172]
Plant response rating, Galium [1, 13]: 10 | Plant response rating, Blackgrass [2, 13]: 0 | Plant response rating, Ragweed [3, 13]: 10 | Plant response rating, Ragweed [3, 14]: 0 | Plant response rating, Kochia (kochia (Kochia scoparia); [13]): 30 | Plant response rating, Kochia (kochia (Kochia scoparia); [14]): 20 | Plant response rating, Corn (corn (Zea mays); [13]): 10 | Plant response rating, Barnyardgrass [4, 13]: 10 | Plant response rating, Barnyardgrass [4, 14]: 0 | Plant response rating, Wheat [5, 13]: 0 | Plant response rating, Foxtail, Giant [6, 13]: 10 | Plant response rating, Foxtail, Giant [6, 14]: 30 | Plant response rating, Ryegrass, Italian [7, 13]: 0 | Plant response rating, Ryegrass, Italian [7, 14]: 0 | Plant response rating, Pigweed [8, 13]: 80 | Plant response rating, Pigweed [8, 14]: 90

O=Cc1cc(-c2c(Br)cccc2Oc2ncc(Cl)cn2)no1 [Compound 195]
Plant response rating, Galium [1, 13]: 10 | Plant response rating, Blackgrass [2, 13]: 0 | Plant response rating, Ragweed [3, 13]: 10 | Plant response rating, Ragweed [3, 14]: 10 | Plant response rating, Kochia (kochia (Kochia scoparia); [13]): 10 | Plant response rating, Kochia (kochia (Kochia scoparia); [14]): 0 | Plant response rating, Corn (corn (Zea mays); [13]): 10 | Plant response rating, Barnyardgrass [4, 13]: 10 | Plant response rating, Barnyardgrass [4, 14]: 40 | Plant response rating, Wheat [5, 13]: 0 | Plant response rating, Foxtail, Giant [6, 13]: 10 | Plant response rating, Foxtail, Giant [6, 14]: 30 | Plant response rating, Ryegrass, Italian [7, 13]: 10 | Plant response rating, Ryegrass, Italian [7, 14]: 0 | Plant response rating, Pigweed [8, 13]: 50 | Plant response rating, Pigweed [8, 14]: 60

COC(=O)c1cc(-c2ccccc2Oc2ncc(Cl)cn2)no1 [Compound 235]
Plant response rating, Galium [1, 13]: 0 | Plant response rating, Blackgrass [2, 13]: 0 | Plant response rating, Ragweed [3, 13]: 0 | Plant response rating, Ragweed [3, 14]: 0 | Plant response rating, Kochia (kochia (Kochia scoparia); [13]): 0 | Plant response rating, Kochia (kochia (Kochia scoparia); [14]): 0 | Plant response rating, Corn (corn (Zea mays); [13]): 0 | Plant response rating, Barnyardgrass [4, 13]: 0 | Plant response rating, Barnyardgrass [4, 14]: 0 | Plant response rating, Wheat [5, 13]: 0 | Plant response rating, Foxtail, Giant [6, 13]: 0 | Plant response rating, Foxtail, Giant [6, 14]: 0 | Plant response rating, Ryegrass, Italian [7, 13]: 0 | Plant response rating, Ryegrass, Italian [7, 14]: 0 | Plant response rating, Pigweed [8, 13]: 0 | Plant response rating, Pigweed [8, 14]: 0

Source: patent publication US10131652B2, “Pyrimidinyloxy benzene derivatives as herbicides” (E. I. DU PONT DE NEMOURS AND COMPANY, priority 2014, dated 2018)
